#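 Interpolation was linear, between the two tested concentrations surrounding the appropriate level; five concentrations were tested over 48 hours in 96-well plates. At the GI50, growth is halved. TGI denotes the concentration required for complete inhibition of growth.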
# Legend:
# Experiment in all cases: DTP human tumour cell line panel, 48 h
# [1] = tested on: IGROV1 ovarian
# [2] = tested on: SNB-75 CNS
# [3] = tested on: OVCAR-8 ovarian
# [4] = tested on: MDA-MB-435
# [5] = tested on: DU-145 prostate
# [6] = tested on: EKVX NSCLC
# [7] = tested on: SK-MEL-28 melanoma
# [8] = tested on: MCF7 breast
# [9] = tested on: TK-10 renal
# [10] = tested on: HCC-2998 colon
# [11] = tested on: HT29 colon
# [12] = tested on: RPMI-8226 leukemia
# [13] = tested on: LOX IMVI melanoma
# [14] = tested on: NCI-H522 lung
# [15] = tested on: SK-MEL-2 melanoma
# [16] = tested on: KM12 colon
# [17] = tested on: OVCAR-5 ovarian
# [18] = tested on: NCI/ADR-RES ovarian
# [19] = tested on: HS 578T breast
# [20] = tested on: HCT-15 colon
# [21] = tested on: SK-MEL-5 melanoma
# [22] = tested on: NCI-H226 lung
# [23] = tested on: SF-268 CNS
# [24] = tested on: UACC-62 melanoma
# [25] = tested on: MDA-MB-231 breast
# [26] = tested on: U251 CNS
# [27] = tested on: CAKI-1 renal
# [28] = tested on: K-562 leukemia
structure (smiles),measurement,setting,value
Cc1ccc(NC2=C(Sc3ccc(Cl)cc3)C(=O)N(Cc3ccccc3)C2=O)cc1Cl,GI50,[1],3.98 µM
same,TGI,[1],15.3 µM
same,GI50,[2],3.92 µM
same,TGI,[2],19.4 µM
same,GI50,[3],3.98 µM
same,TGI,[3],34.8 µM
same,GI50,[4],22 µM
same,TGI,[4],> 100 µM
same,GI50,[5],3.98 µM
same,TGI,[5],24.6 µM
same,GI50,[6],26.7 µM
same,TGI,[6],> 100 µM
same,GI50,[7],28.7 µM
same,TGI,[7],> 100 µM
same,GI50,[8],4.37 µM
same,TGI,[8],> 100 µM
same,GI50,[9],11.7 µM
same,TGI,[9],68.3 µM
same,GI50,[10],19.6 µM
same,TGI,[10],> 100 µM
same,GI50,[11],10.4 µM
same,TGI,[11],> 100 µM
same,GI50,[12],12.7 µM
same,TGI,[12],40.8 µM
same,GI50,[13],4.84 µM
same,TGI,[13],17.1 µM
same,GI50,[14],3.62 µM
same,TGI,[14],14.9 µM
same,GI50,[15],13.2 µM
same,TGI,[15],33.3 µM
same,GI50,[16],31.1 µM
same,TGI,[16],> 100 µM
same,GI50,[17],10.5 µM
same,TGI,[17],25.1 µM
same,GI50,[18],10.4 µM
same,TGI,[18],29.7 µM
same,GI50,[19],3.37 µM
same,TGI,[19],18.7 µM
same,GI50,[20],10.6 µM
same,TGI,[20],> 100 µM
same,GI50,[21],5.84 µM
same,TGI,[21],20.3 µM
same,GI50,[22],4.23 µM
same,TGI,[22],19.9 µM
same,GI50,[23],6.26 µM
same,TGI,[23],93.7 µM
same,GI50,[24],13.5 µM
same,TGI,[24],30.5 µM
same,GI50,[25],3.84 µM
same,TGI,[25],14.7 µM
same,GI50,[26],3.24 µM
same,TGI,[26],14 µM
same,GI50,[27],3.44 µM
same,TGI,[27],15.9 µM
same,GI50,[28],3.66 µM
same,TGI,[28],19.7 µM

# — PubChem BioAssay (NCI)
